Source: article doi:10.1101/2020.03.05.979567v1 (biorxiv, 2020)

Assays:
[1] = target: T1, Streptomyces chromofuscus phospholipase D (ScPld) (Streptomyces chromofuscus, UniProt Q8KRU5); assay: PED-A1 hydrolysis, fluorescence; type: biochemical
T1 sequence (Q8KRU5 47-556): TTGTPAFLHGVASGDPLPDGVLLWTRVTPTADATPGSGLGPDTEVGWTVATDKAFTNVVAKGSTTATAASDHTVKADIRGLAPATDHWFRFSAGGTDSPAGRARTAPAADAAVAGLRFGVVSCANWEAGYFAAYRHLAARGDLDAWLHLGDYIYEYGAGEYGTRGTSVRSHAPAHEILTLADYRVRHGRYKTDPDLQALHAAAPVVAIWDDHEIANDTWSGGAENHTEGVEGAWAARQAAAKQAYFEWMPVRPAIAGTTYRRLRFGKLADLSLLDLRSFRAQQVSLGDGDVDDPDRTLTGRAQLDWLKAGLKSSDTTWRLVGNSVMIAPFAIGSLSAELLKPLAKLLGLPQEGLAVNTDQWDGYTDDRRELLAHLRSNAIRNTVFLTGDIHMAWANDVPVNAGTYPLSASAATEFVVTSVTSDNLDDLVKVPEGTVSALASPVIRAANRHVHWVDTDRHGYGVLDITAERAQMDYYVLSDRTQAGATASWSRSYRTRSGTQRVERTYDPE

[2] = target: T2, recombinant mouse Nape-pld (Mus musculus, UniProt Q8BH82); assay: PED-A1 hydrolysis, fluorescence, initial rate; type: biochemical
T2 sequence (Q8BH82 1-396): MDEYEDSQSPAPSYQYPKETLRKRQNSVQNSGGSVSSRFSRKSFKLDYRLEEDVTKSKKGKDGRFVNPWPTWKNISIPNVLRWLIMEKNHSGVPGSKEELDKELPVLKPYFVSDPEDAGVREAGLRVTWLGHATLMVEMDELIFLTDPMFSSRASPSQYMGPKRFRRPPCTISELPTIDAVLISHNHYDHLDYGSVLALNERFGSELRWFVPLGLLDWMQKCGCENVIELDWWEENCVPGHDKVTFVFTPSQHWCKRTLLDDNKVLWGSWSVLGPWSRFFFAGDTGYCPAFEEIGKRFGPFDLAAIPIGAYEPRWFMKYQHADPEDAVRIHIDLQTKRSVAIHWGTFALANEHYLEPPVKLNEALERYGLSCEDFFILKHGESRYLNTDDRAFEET

[3] = target: T2, recombinant mouse Nape-pld; assay: PED-A1 hydrolysis kinetics, fluorescence; type: biochemical
[4] = target: NAPE-PLD (endogenous, HEK293 cells) (Homo sapiens, UniProt Q6IQ20); assay: PED-A1 hydrolysis in intact HEK293 cells, fluorescence; type: cell-based; details: 30 min preincubation, 3.5 μM PED-A1
[5] = target: T2, recombinant mouse Nape-pld; assay: biochemical
[6] = target: T2, recombinant mouse Nape-pld; assay: biochemical; remark: listed apart in the source
[7] = target: T2, recombinant mouse Nape-pld; assay: biochemical; remark: listed apart in the source

Chain of NAPE-PLD (endogenous, HEK293 cells) (Q6IQ20 whole entry): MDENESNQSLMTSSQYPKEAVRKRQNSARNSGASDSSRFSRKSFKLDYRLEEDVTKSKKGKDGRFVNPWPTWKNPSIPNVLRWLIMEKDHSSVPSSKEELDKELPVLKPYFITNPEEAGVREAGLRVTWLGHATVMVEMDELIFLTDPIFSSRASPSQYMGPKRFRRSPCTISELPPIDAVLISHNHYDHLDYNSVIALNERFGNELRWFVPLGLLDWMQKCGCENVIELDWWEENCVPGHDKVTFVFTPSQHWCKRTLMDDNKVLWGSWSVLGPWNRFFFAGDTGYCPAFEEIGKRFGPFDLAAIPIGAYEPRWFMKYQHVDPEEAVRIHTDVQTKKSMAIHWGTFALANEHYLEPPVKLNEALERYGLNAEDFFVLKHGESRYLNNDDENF

| Structure (SMILES) | IC50 [2] [µM] | IC50 [5] [µM] | other results |
| --- | --- | --- | --- |
| Oc1c(Cl)cc(Cl)c(Cl)c1Cc1c(O)c(Cl)cc(Cl)c1Cl [Inh 1, hexachlorophene] | ~2 | 1.6 | IC50 [1]: 149 µM; Ki [3]: ~2 µM; IC50 [4]: 9.8 µM |
| Oc1c(Cl)cc(Cl)cc1Sc1cc(Cl)cc(Cl)c1O [Inh 2, bithionol] |  | 2.1 | IC50 [1]: > 200 µM; IC50 [4]: 10.7 µM |
| COc1c(O)cc2oc3cc(O)c(CC=C(C)C)c(O)c3c(=O)c2c1CC=C(C)C [Inh 3, Mangostin] |  | 2.8 |  |
| O=c1c2ccccc2[se]n1-c1ccccc1 [Inh 4, ebselen] |  | 2.8 |  |
| CC1=C(O)C(=O)C=C2C1=CC=C1[C@@]2(C)CC[C@@]2(C)[C@@H]3C[C@](C)(C(=O)O)CC[C@]3(C)CC[C@]12C [Inh 5, Tripterine] |  | 3 |  |
| Cc1cc2c(C(C)C)c(O)c(O)c(C=O)c2c(O)c1-c1c(C)cc2c(C(C)C)c(O)c(O)c(C=O)c2c1O [Inh 6, Gossypol] |  | 6.9 |  |
| CCCCC(=O)O[C@H]1CC[C@H]2[C@@H]3CCc4cc(O)ccc4[C@H]3CC[C@]12C [Inh 7, estradiol valerate] | 7.8 |  |  |
| CC(C)=CCC[C@]1(C)C=Cc2c(O)c3c(c(CC=C(C)C)c2O1)O[C@]12C(=C[C@@H]4C[C@H]1C(C)(C)O[C@@]2(C/C=C(/C)C(=O)O)C4=O)C3=O [Inh 9, Gambogic acid] |  | 9.9 |  |
| [H]/N=C(\N/C(=N/[H])NCCCCCCNC(=N)NC(=N)Nc1ccc(Cl)cc1)Nc1ccc(Cl)cc1 [Inh 10, Chlorhexidine] |  | 10.4 |  |
| COc1ccc(C(=O)c2ccccc2O)c(O)c1 [Inh 14, dioxybenzone] |  | 19.1 |  |
| Clc1cc(Cl)c(Cl)c(Cc2cc(Cl)cc(Cl)c2Cl)c1 [Inh 15, CAS 2888-15-5] |  |  | IC50 [6]: > 200 µM |
| Oc1ccc(Cl)cc1Cc1cc(Cl)ccc1O [Inh 17, Dichlorophen] | 23.2 |  |  |
| Oc1ccc(Cl)cc1Sc1cc(Cl)ccc1O [Inh 18, Fenticlor] | 26.8 |  |  |
| COc1ccc(Cl)cc1Cc1cc(Cl)ccc1OC [Inh 19, CAS 7569-57-5] |  |  | IC50 [6]: > 200 µM |
| Oc1c(Cl)cc(Cl)cc1Cc1cc(Cl)cc(Cl)c1O [Inh 21, CAS 1940-43-8] | 26.5 |  |  |
| Oc1c(Br)cc(Cl)cc1Cc1cc(Cl)cc(Br)c1O [Inh 22, CAS 15435-29-7] | 5 |  |  |
| Oc1c(Cl)cc(Cl)cc1C(c1cc(Cl)cc(Cl)c1O)C(Cl)(Cl)Cl [Inh 23, CAS 92167-59-4] | 2.8 |  |  |
| CC(C)(c1cc(Cl)c(O)c(Cl)c1)c1cc(Cl)c(O)c(Cl)c1 [Inh 24, CAS 79-95-8] | 64.7 |  |  |
| Oc1cc(Cl)ccc1Oc1ccc(Cl)cc1Cl [Inh 25, triclosan] | 62.9 |  |  |
| O=C(Nc1ccc(Cl)cc1)Nc1ccc(Cl)c(Cl)c1 [Inh 26, triclocarban] |  |  | IC50 [7]: > 200 µM |
